# Results published in the supplement of paper PMC10949913.
# Assays:
# Conditions in all cases: 48 h
# CU-ACC2 [1] = assay: AC50 viability; higher = less potent
# In short: (§1)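 Luminescence from CellTiter-Glo, read after 48 h, measured three adrenocortical carcinoma cell lines treated in 1,536-well plates with library compounds at 11 concentrations. Values were normalised per plate to vehicle and empty-well controls. The AC50 and area under the curve come from fitted concentration-response curves in inhibitory or non-responding classes only.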
# NCI-H295R [2] = assay: AC50 viability; higher = less potent
# In short: as §1
# CU-ACC1 [3] = assay: AC50 viability; higher = less potent
# In short: as §1
# CU-ACC2 [4] = assay: area under concentration-response curve (viability) (AUC (a.u.)); higher = less active
# In short: as §1
# NCI-H295R [5] = assay: as above
# In short: as §1
# CU-ACC1 [6] = assay: as above
# In short: as §1
Structure (SMILES),AC50 viability (CU-ACC2 [1]) [µM],AC50 viability (NCI-H295R [2]) [µM],AC50 viability (CU-ACC1 [3]) [µM],area under concentration-response curve (CU-ACC2 [4]),area under concentration-response curve (NCI-H295R [5]),area under concentration-response curve (CU-ACC1 [6])
C=C1CCC2[C@](C)(CO)C(O)CC[C@]2(C)C1C/C=C1/C(=O)OCC1O (stereo partly specified),11.8,20.9,18.6,504,445,472
COc1cc(N2CCN(C)CC2)ccc1Nc1nccc(-c2cn(C)c3cnccc23)n1,18.6,20.9,33.2,507,464,451
Cc1nc(Nc2ncc(C(=O)Nc3c(C)cccc3Cl)s2)cc(N2CCN(CCO)CC2)n1,23.5,23.5,29.5,461,446,448
NC1=C(Cl)C(=CC=N1)OC2=C(F)C=C(NC(=O)\C3=C\N\C=C(C3=O)\C4=CC=C(F)C=C4)C=C2,16.6,13.2,14.8,502,490,437
C#Cc1cccc(Nc2ncnc3cc(OC)c(OCCCCCCC(=O)NO)cc23)c1,2.95,4.68,4.68,450,448,407
NC1(Cc2ccc(Cl)cc2)CCN(c2ncnc3[nH]ccc23)CC1,18.6,14.8,16.6,540,461,444
C=CC(=O)Nc1cccc(Oc2nc(Nc3ccc(N4CCN(C)CC4)cc3OC)ncc2Cl)c1,7.42,9.34,8.33,526,502,442
CS[C@H]1SC[C@@H]2C(=O)N(C)[C@H](C(C)C)C(=O)OC[C@H](NC(=O)c3cnc4ccccc4n3)C(=O)N[C@H](C)C(=O)N(C)[C@H]1C(=O)N(C)[C@H](C(C)C)C(=O)OC[C@H](NC(=O)c1cnc3ccccc3n1)C(=O)N[C@H](C)C(=O)N2C,0.0209,0.0833,0.00934,235,320,152
CN(C)C/C=C/C(=O)Nc1ccc(C(=O)N2CCC[C@@H](Nc3ncc(Cl)c(-c4c[nH]c5ccccc45)n3)C2)cc1,2.63,14.8,5.25,358,489,399
CNCCCOc1cc(F)c(-c2c(Cl)nc3ncnn3c2N[C@@H](C)C(F)(F)F)c(F)c1,10.5,0.148,5.25,403,397,456
CNC(=O)c1ccccc1Nc1nc(Nc2ccc(N3CCOCC3)cc2OC)ncc1Cl,4.17,0.525,16.6,483,452,435
CC1=NN=C(C[C@@H]2\C=C(C3=CC=C(Cl)C=C3)/C4=CC=CC=C4[N]5C(=NN=C25)C)O1,3.32,5.25,5.9,447,368,433
C[C@H](NC(=O)/C(C#N)=C/c1cccc(Br)n1)c1ccccc1,23.5,23.5,20.9,526,442,444
Cc1cc(Nc2cc(N3CCN(C)CC3)nc(/C=C/c3ccccc3)n2)n[nH]1,13.2,6.61,11.8,369,414,401
C[C@@]12O[C@@H](C[C@]1(O)CO)n1c3ccccc3c3c4c(c5c6ccccc6n2c5c31)CNC4=O,9.34,14.8,6.61,346,407,380
CC[S+](=O)([O-])N1CCN(c2ccc(Nc3ncc(C(N)=O)c(NC4CC4)n3)cc2)CC1,26.3,16.6,20.9,561,499,474
CC(C)c1cc(C(=O)N2Cc3ccc(CN4CCN(C)CC4)cc3C2)c(O)cc1O,0.833,3.72,2.35,445,445,371
O=C(c1ccc(F)c(F)c1Nc1ccc(I)cc1F)N1CC(O)([C@@H]2CCCCN2)C1,3.32,10.5,6.61,299,371,308
c1cc(-c2cnn3cc(-c4ccc(OCCN5CCCCC5)cc4)cnc23)ccn1,9.34,10.5,11.8,456,450,404
Cc1ccc(NC(=O)c2ccc3c(c2)OCCO3)cc1NC(=O)c1ccc2nc(OCCN3CCCC3)ccc2c1,0.456,2.88,6.45,373,398,303
NC(CO)(CO)CCc1ccc(Sc2cccc(OCc3ccccc3)c2)cc1Cl,18.6,10.5,14.8,491,449,423
C=C1/C(=C\C=C2/CCC[C@]3(C)[C@@H]([C@H](C)/C=C/[C@H](C)C(C)C)CC[C@@H]23)C[C@@H](O)C[C@@H]1O,7.42,7.42,6.61,400,372,381
COC1=CC=C(C(=C1)OC(C)C)C/2=N/[C@@H]([C@@H](N2C(=O)N3CCNC(=O)C3)C4=CC=C(Cl)C=C4)C5=CC=C(Cl)C=C5,14.8,10.5,11.8,291,288,290
Nc1ncccc1-c1nc2ccc(-c3ccccc3)nc2n1-c1ccc(C2(N)CCC2)cc1,16.6,5.9,8.33,437,408,354
Cc1c(CN2CCN([S+](C)(=O)[O-])CC2)sc2c(N3CCOCC3)nc(-c3cnc(N)nc3)nc12,0.468,1.18,0.525,403,333,282
CC1(C)CC\C2=C(/O1)C3=C(C=CC=C3)C(=O)C2=O,16.6,33.2,6.61,515,535,333

Structure (SMILES),AC50 viability (CU-ACC2 [1]) [µM],AC50 viability (NCI-H295R [2]) [µM],AC50 viability (CU-ACC1 [3]) [µM],area under concentration-response curve (CU-ACC2 [4]),area under concentration-response curve (NCI-H295R [5]),area under concentration-response curve (CU-ACC1 [6])
CC/1=C(\O)C(=O)\C=C2/C1=C\C=C3/[C@@]2(C)CC[C@@]4(C)[C@@H]5C[C@@](C)(CC[C@]5(C)CC[C@]34C)C(O)=O,6.61,23.5,13.2,515,447,474
CC1(C)CC(=O)c2c(C(F)(F)F)nn(-c3ccc(C(N)=O)c(NC4CCC(OC(=O)CN)CC4)c3)c2C1 (stereo unspecified),0.417,1.05,1.05,426,431,362
CC(C)C[C@H](NC(=O)[C@@H](NC(=O)c1cccc(-c2ccccc2)n1)[C@@H](C)O)B(O)O,0.0723,0.144,0.0723,297,337,300
CO[C@H]1/C=C\C=C(\C)C(=O)NC2=CC(=O)C(NCCN(C)C)=C(C[C@@H](C)C[C@H](OC)[C@H](O)[C@@H](C)/C=C(/C)[C@@H]1OC(N)=O)C2=O,0.833,3.72,1.66,460,451,335
N/C(=N\C(=O)c1nc(Cl)c(N)nc1N)NCc1ccccc1,8.33,11.8,10.5,370,396,322
CCC(=O)N1CCN(CC1)C2=C(C=C(C=C2)N3C(=O)\C=C/C4=C3C5=CC(=CC=C5N=C4)C6=CN=C7C=CC=CC7=C6)C(F)(F)F,0.0456,0.129,0.0102,362,326,305
CC1(N2CCC(n3c([C@@H]4CCCNC4)nc4ccccc43)CC2)CCCCCCC1,13.2,11.8,10.5,562,439,470
C1=CC2=N/C(=N\c3ccc(OCCN4CCCC4)c(c3)COC/C=C/COCc3cccc2c3)N1,2.63,4.17,3.72,436,387,387
C=CCNC1=C2C[C@@H](C)C[C@H](OC)[C@H](O)[C@@H](C)/C=C(\C)[C@H](OC(N)=O)[C@@H](OC)/C=C\C=C(/C)C(=O)NC(=CC1=O)C2=O,13.2,37.2,10.5,418,515,433
O=C(Nc1ccnc(NC(=O)C2CC2)c1)c1c(Cl)cccc1Cl,4.17,18.6,9.34,463,479,390
COc1cc(C(=O)NC2CCN(C)CC2)c(F)cc1Nc1ncc2c(n1)N(C1CCCC1)CC(F)(F)C(=O)N2C,14.8,4.68,16.6,393,400,412
C=CC(=O)Nc1cccc(Nc2nc(Nc3ccc(N4CCN(C(C)=O)CC4)cc3OC)ncc2C(F)(F)F)c1,3.72,5.25,4.68,394,362,335
COc1cc(C)c(Sc2cnc(NC(=O)c3ccc(CNC(C)C(C)C)cc3)s2)cc1C(=O)N1CCN(C(C)=O)CC1 (stereo unspecified),16.6,14.8,37.2,527,478,466
C=CC(=O)N1CC/C(=C\c2ccc(F)c([N+](=O)[O-])c2)C(=O)/C(=C/c2ccc(F)c([N+](=O)[O-])c2)C1,0.148,0.209,0.263,342,333,318
Cc1ccc([S+](=O)([O-])Nc2cc(Cl)ccc2C(=O)Nc2nc(-c3ccccc3)cs2)cc1,0.263,2.63,9.34,306,340,362
C=CC(=O)Nc1cccc(Oc2nc(Nc3ccc(N4CCN(C)CC4)cc3)ncc2Cl)c1,9.34,5.9,8.33,402,431,428
C[S+](=O)([O-])N1CCC(NC(=O)c2[nH]ncc2NC(=O)c2c(Cl)cccc2Cl)CC1,2.63,14.8,7.42,488,426,428
CCN(CC)CCNC(=O)c1ccc2nc(-c3ccccc3)c(-c3ccc(CN4CCC(n5c(=O)[nH]c6ccccc65)CC4)cc3)nc2c1,7.42,9.34,9.34,479,440,444
O=C(/C=C\n1cnc(-c2cc(C(F)(F)F)cc(C(F)(F)F)c2)n1)NNc1ccccn1,1.32,10.5,2.35,245,271,273
CC(C)N1N/C(=C2\C=c3cc(O)ccc3=N2)c2c(N)ncnc21,2.63,2.09,1.66,520,472,401
CC(C)[C@]12O[C@H]1[C@@H]3O[C@@]34[C@@]5(C)CC\C6=C(COC6=O)/[C@@H]5C[C@@H]7O[C@]47[C@@H]2O,0.059,0.295,0.0525,242,274,251
CN(c1ncccc1CNc1nc(Nc2ccc3c(c2)CC(=O)N3)ncc1C(F)(F)F)[S+](C)(=O)[O-],6.61,14.8,13.2,422,430,404
CCCCNc1ncc2c(-c3ccc(CN4CCN(C)CC4)cc3)cn([C@H]3CC[C@H](O)CC3)c2n1,7.42,10.5,16.6,544,481,476
COc1cc(F)ccc1-c1ncnc(Nc2cccc(C[S+](C)(=N)[O-])c2)n1 (stereo unspecified),0.934,4.17,1.86,380,428,388
Cc1n[nH]c2ccc(-c3cncc(OC[C@@H](N)Cc4ccccc4)c3)cc12,1.18,2.35,1.48,342,294,305
